Columns and labels:
[1] = FRAP iron ion reduction capacity; settings: mean ± SD, n = 3
Description: This method had been slightly modified according to the literature. Firstly, 40 mmol·L^−1 HCl, 100 mmol·L^−1 FeSO4, 20 mmol·L^−1 FeCl3, 0.3 mol·L^−1 acetic acid sodium acetate buffer, and 10 mmol·L^−1 TPTZ were carefully prepared, respectively. Secondly, the TPTZ working solution was prepared by mixing 20 mmol·L^−1 FeCl3, 0.3 mol·L^−1 acetic acid sodium acetate buffer, and 10 mmol·L^−1 TPTZ in a volume ratio of 1:10:1. Thirdly, 100 μL of sample test solution and 190 μL TPTZ working solution were added to a 96-well microplate, shaken well, and reacted at room temperature for 10 min. Finally, the absorbance at 593 nm was measured by ReadMax1200 microplate reader. The positive control was Trolox and Vc, and the blank control was anhydrous ethanol, with each experiment conducted in triplicate. The FRAP assay results were quantified by extrapolating the absorbance values to the ferrous sulfate standard curve, with the antioxidant capacity expressed as millimolar ferrous ion equivalents per gram of dry sample weight (mmol Fe^2+·g^−1). The FRAP iron ion reduction capacities were also expressed as TEAC values, calculated according to Section 2.6.1.

[2] = DPPH radical scavenging capacity; settings: mean ± SD, n = 3
Description: This method had been slightly modified according to the literature. Firstly, 10 μL of sample test solution and 190 μL of 0.1 mmol·L^−1 DPPH working solution were added to a 96-well microplate, shaken well, and reacted in the dark for 30 min. The absorbance at 517 nm was measured by ReadMax1200 microplate reader. The positive control was Trolox and Vc, and the blank control was anhydrous ethanol, with each experiment conducted in triplicate. The standard curve was plotted to obtain the linear regression equation. […] The TEAC values were calculated from the standard curve of Trolox and expressed as millimoles of Trolox equivalents per gram of sample (mmol TE/g).

[3] = biological target: T1, α-amylase (Sus scrofa, UniProt P00690); test: α-Amylase inhibitory activity (DNS method); format: biochemical, porcine; settings: mean ± SD, n = 3
T1 construct: purchased Adamas-beta Reagents Co., Ltd. (Shanghai, China); host or cells: porcine pancreas
T1 sequence (P00690 16-511): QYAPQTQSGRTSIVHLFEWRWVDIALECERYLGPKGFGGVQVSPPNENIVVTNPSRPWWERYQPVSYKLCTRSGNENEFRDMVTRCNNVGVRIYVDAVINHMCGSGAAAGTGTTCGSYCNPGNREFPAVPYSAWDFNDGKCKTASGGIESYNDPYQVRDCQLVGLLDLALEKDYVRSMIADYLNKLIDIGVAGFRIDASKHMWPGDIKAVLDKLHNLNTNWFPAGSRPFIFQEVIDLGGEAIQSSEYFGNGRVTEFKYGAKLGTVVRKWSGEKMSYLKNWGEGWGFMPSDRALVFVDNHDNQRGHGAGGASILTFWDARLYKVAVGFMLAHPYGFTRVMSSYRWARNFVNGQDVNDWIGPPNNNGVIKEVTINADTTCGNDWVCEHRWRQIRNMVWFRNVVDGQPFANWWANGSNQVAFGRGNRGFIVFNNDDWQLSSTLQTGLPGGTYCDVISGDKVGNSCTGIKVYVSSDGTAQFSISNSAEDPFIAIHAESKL
Description: α-Amylase inhibitory activity was examined based on a modified method described previously. Firstly, 200 µL of sample test solution and 100 µL of 1 U·mL^−1 α-amylase solution were transferred into 5 mL centrifuge tube, and incubated in a 37 °C constant temperature water bath for 10 min. Secondly, 200 µL of 1% starch solution was added and incubated in a 37 °C constant temperature water bath for 5 min. Thirdly, 500 µL of DNS reagent was prepared, added, immersed and reacted in boiling water for 5 min [7]. Subsequently, the reaction solution was removed from boiling water and cooled for 10 min. Finally, 200 µL of the reaction solution was transferred into a 96-well microplate, and measured its absorbance value at a wavelength of 540 nm by ReadMax1200 microplate reader. Each experiment was conducted in triplicate.

[4] = ABTS radical scavenging capacity; settings: mean ± SD, n = 3
Description: This method had been slightly modified according to the literature. Firstly, 1.32 mg·mL^−1 potassium persulfate and 3.84 mg·mL^−1 ABTS^+• were mixed in a volume ratio of 1:1 to obtain the ABTS^+• mother liquor. The ABTS^+• mother liquor was stored in a dark environment for 12–16 h, diluted with ethanol, and adjusted to an absorbance range of 0.695 ± 0.705 at 734 nm to obtain an ABTS^+• working solution. Secondly, 100 μL of sample test solution and 190 μL ABTS^+• working solution were added to a 96-well microplate, shaken well, and reacted in the dark for 30 min. Finally, the absorbance at 734 nm was measured by ReadMax1200 microplate reader. The positive control was Trolox and Vc, and the blank control was anhydrous ethanol, with each experiment conducted in triplicate. The ABTS radical scavenging capacities were also expressed as IC50 and TEAC values, calculating according to Section 2.6.1. The standard curve was plotted to obtain the linear regression equation. The ABTS RCR was calculated as follows: (3) ABTS RCR=AABTS−ASample/AABTS×100% where AABTS and ASample were the absorbance values of blank control and sample, respectively.

[5] = test system: α-glucosidase; test: Affinity ultrafiltration MTAUF-UPLC-MS/MS of DE with α-glucosidase; format: binding, Saccharomyces cerevisiae; settings: peak area with active / inactivated enzyme; DE 5.0 mg·mL^−1
Description: (§1) Based on hypoglycemic inhibitory activities, potential inhibitors in the DE extract were screened using the MTAUF-UPLC-MS/MS method, as previously described. Firstly, α-amylase or α-glucosidase enzymes were inactivated by heating in boiling water for 20 min. Secondly, 100 µL of DE sample (5.0 mg·mL^−1 in PBS, pH = 6.8), 20 µL of either 2 U·mL^−1 active or inactivated enzyme, and 190 µL PBS were mixed, shaken well, and incubated at 37 °C for 60 min. […] This step was repeated 3 times. […] This step was also repeated 3 times. The resulting solution was dried and reconstituted in 50 µL methanol for further UPLC-QTOF-MS/MS analysis.

[6] = biological target: α-glucosidase; test: α-Glucosidase inhibitory activity (pNPG); format: biochemical, Saccharomyces cerevisiae; settings: mean ± SD, n = 3
Description: α-Glucosidase inhibitory activity was examined based on a modified method described previously. […] Then, 40 μL of 5 mmol·L^−1 pNPG was added, and the reaction was for an additional 15 min. Finally, 80 μL of 1 mol·L^−1 sodium carbonate was added to terminate the reaction, and measured its absorbance value at a wavelength of 405 nm by ReadMax1200 microplate reader (Shanpu, Shanghai, China). Each experiment was conducted in triplicate. […] The IR was calculated according to Equation (1) in Section 2.5.1.

[7] = biological target: T1, α-amylase; test: Affinity ultrafiltration MTAUF-UPLC-MS/MS of DE with α-amylase; format: binding, porcine; settings: peak area with active / inactivated enzyme; DE 5.0 mg·mL^−1
Description: as §1

O=C(/C=C/c1ccc(O)c(O)c1)O[C@H]1[C@H](O)C[C@](O)(C(=O)O)C[C@H]1OC(=O)/C=C/c1ccc(O)c(O)c1 [Compound 2, isochlorogenic acid C]
iron ion reducing capacity, equivalent concentration of ferrous ions (FRAP) [1]: 107.35 ± 3.42 mmol Fe^2+·g^−1 | DPPH radical scavenging capacity IC50 [2]: 5.55 ± 0.02 mg/L | IC50 of α-amylase inhibitory activity [3]: 254.00 ± 0.78 mg/L | ABTS radical scavenging capacity IC50 [4]: 3.01 ± 0.03 mg/L | relative binding affinity (RBA) toward α-glucosidase [5]: less than 1 | IC50 of α-glucosidase inhibitory activity [6]: 84.84 ± 4.31 mg/L | relative binding affinity (RBA) toward α-amylase [7]: 1.71 ± 0.07

O=C(O)c1ccc(O)cc1 [Compound 3, 4-hydroxybenzoic acid]
relative binding affinity (RBA) toward α-glucosidase [5]: 2.47 ± 0.07 | relative binding affinity (RBA) toward α-amylase [7]: less than 1

COc1cc(/C=C/C(=O)O)ccc1O [Compound 5, ferulic acid]
DPPH radical scavenging capacity IC50 [2]: 6.11 ± 0.06 mg/L | ABTS radical scavenging capacity IC50 [4]: 1.20 ± 0.00 mg/L | relative binding affinity (RBA) toward α-glucosidase [5]: 1.35 ± 0.05 | relative binding affinity (RBA) toward α-amylase [7]: 1.08 ± 0.05

COc1ccc(C=CC(=O)O)cc1OC [Compound 6, 3,4-dimethoxy cinnamic acid]
relative binding affinity (RBA) toward α-glucosidase [5]: less than 1 | relative binding affinity (RBA) toward α-amylase [7]: 1.05 ± 0.02

O=c1cc(-c2ccc(O)c(O)c2)oc2cc(O)cc(O)c12 [Compound 7, luteolin]
DPPH radical scavenging capacity IC50 [2]: 1.96 ± 0.05 mg/L | ABTS radical scavenging capacity IC50 [4]: 2.47 ± 0.05 mg/L | relative binding affinity (RBA) toward α-glucosidase [5]: less than 1 | relative binding affinity (RBA) toward α-amylase [7]: 1.83 ± 0.07

O=c1c(O)c(-c2ccc(O)c(O)c2)oc2cc(O)cc(O)c12 [Compound 8, quercetin]
iron ion reducing capacity, equivalent concentration of ferrous ions (FRAP) [1]: 56.40 ± 1.81 mmol Fe^2+·g^−1 | DPPH radical scavenging capacity IC50 [2]: 4.23 ± 0.04 mg/L | ABTS radical scavenging capacity IC50 [4]: 2.12 ± 0.02 mg/L

O=c1c(-c2ccc(O)cc2)coc2cc(O)cc(O)c12 [Compound 13, genistein]
ABTS radical scavenging capacity IC50 [4]: 18.26 ± 0.52 mg/L | relative binding affinity (RBA) toward α-glucosidase [5]: 1.60 ± 0.03 | relative binding affinity (RBA) toward α-amylase [7]: 1.15 ± 0.09

O=c1cc(-c2ccc(O)cc2)oc2cc(O)cc(O)c12 [Compound 14, apigenin]
relative binding affinity (RBA) toward α-glucosidase [5]: 1.54 ± 0.03 | IC50 of α-glucosidase inhibitory activity [6]: 35.99 ± 0.42 mg/L | relative binding affinity (RBA) toward α-amylase [7]: 1.48 ± 0.03

O=c1c(O)c(-c2ccc(O)cc2)oc2cc(O)cc(O)c12 [Compound 15, kaempferol]
iron ion reducing capacity, equivalent concentration of ferrous ions (FRAP) [1]: 57.56 ± 1.33 mmol Fe^2+·g^−1 | DPPH radical scavenging capacity IC50 [2]: 5.18 ± 0.02 mg/L | IC50 [3]: 99.5 µM | ABTS radical scavenging capacity IC50 [4]: 3.93 ± 0.04 mg/L

COc1cc(-c2cc(=O)c3c(O)cc(O)cc3o2)cc(OC)c1O[C@H](CO)[C@@H](O)c1ccc(O)cc1 [Compound 17, calquiquelignan D]
relative binding affinity (RBA) toward α-amylase [7]: less than 1

COc1cc(-c2cc(=O)c3c(O)cc(O)cc3o2)cc(OC)c1O [Compound 18, tricin]
relative binding affinity (RBA) toward α-amylase [7]: less than 1

O=c1cc(-c2ccccc2)oc2cc(O)cc(O)c12 [Compound 24, chrysin]
relative binding affinity (RBA) toward α-glucosidase [5]: 1.64 ± 0.05 | relative binding affinity (RBA) toward α-amylase [7]: 1.66 ± 0.08

O=C1C[C@@H](c2ccccc2)Oc2cc(O)cc(O)c21 [Compound 25, pinocembrin]
relative binding affinity (RBA) toward α-glucosidase [5]: 1.11 ± 0.03 | relative binding affinity (RBA) toward α-amylase [7]: 1.53 ± 0.06

COc1cc(O)c2c(=O)cc(-c3ccc(O)cc3)oc2c1 [Compound 27, genkwanin]
relative binding affinity (RBA) toward α-glucosidase [5]: 2.09 ± 0.06 | relative binding affinity (RBA) toward α-amylase [7]: 2.13 ± 0.07

C=C1CC[C@]2(C)CC[C@]3(C)[C@H](CC[C@@H]4[C@@]5(C)CC[C@H](O)C(C)(C)[C@@H]5CC[C@]43C)[C@H]2[C@@H]1C [Compound 48, taraxasterol]
relative binding affinity (RBA) toward α-glucosidase [5]: 1.46 ± 0.09 | relative binding affinity (RBA) toward α-amylase [7]: less than 1
